Experimental findings from ChEMBL document CHEMBL1131851, “Synthesis and fluorescence properties of Oregon Green 514 labeled peptides” (Bioorg Med Chem Lett, 1999) are described below.

The data set in a line: Acid dissociation constant of the compound. The class given is ADME.

The structures appear in SMILES notation.

Consider `O=C(O)CSc1c(F)c(F)c(C(=O)O)c(-c2c3cc(F)c(=O)cc-3oc3cc(O)c(F)cc23)c1F`, for which the pKa – broadly, the negative logarithm of the acid dissociation constant – was found to be 4.8.
Then `O=C(O)c1ccc(C(=O)O)c(-c2c3ccc(=O)cc-3oc3cc(O)ccc23)c1` [6-Carboxyfluorescein], with 6.4.
